Test results from patent US20050069887A1, “Dna synthesis promoters dna polymerase-associated factors and utilization thereof” (priority 2001, published 2005).
Read-outs that look alike come from different tables or passages of the source.

Tests used:
nPfu DNA polymerase = molecular target: T1, nPfu DNA polymerase (Pyrococcus furiosus, UniProt P61875); test: PCR using nPfu DNA polymerase with added salts (Examples 1-5, 1-6); assay type: biochemical; conditions: salt at 4-6 mM of ion equivalent, FIG. 7
T1 construct: α-Type Enzyme (Native Pfu); purchased STRATAGENE
T1 sequence (P61875 1-775): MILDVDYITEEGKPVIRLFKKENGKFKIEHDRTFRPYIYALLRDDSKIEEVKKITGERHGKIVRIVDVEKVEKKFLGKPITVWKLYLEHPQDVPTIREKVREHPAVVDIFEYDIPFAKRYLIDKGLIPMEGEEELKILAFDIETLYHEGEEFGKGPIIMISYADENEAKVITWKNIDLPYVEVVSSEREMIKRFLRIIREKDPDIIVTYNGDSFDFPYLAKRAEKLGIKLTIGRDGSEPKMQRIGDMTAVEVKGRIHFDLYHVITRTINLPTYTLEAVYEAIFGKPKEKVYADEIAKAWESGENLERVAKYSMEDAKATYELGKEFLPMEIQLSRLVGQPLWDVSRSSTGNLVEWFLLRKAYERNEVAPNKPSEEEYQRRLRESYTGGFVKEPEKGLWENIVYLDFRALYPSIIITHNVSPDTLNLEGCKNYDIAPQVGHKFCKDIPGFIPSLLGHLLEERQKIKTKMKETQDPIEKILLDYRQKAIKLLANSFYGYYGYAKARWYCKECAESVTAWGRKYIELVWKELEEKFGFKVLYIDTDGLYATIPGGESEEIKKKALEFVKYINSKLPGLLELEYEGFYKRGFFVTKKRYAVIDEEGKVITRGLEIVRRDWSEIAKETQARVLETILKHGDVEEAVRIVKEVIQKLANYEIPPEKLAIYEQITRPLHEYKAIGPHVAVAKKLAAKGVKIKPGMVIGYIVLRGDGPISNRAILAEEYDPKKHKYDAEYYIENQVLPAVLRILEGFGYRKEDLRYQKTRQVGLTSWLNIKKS
Procedure: The effect produced by the addition of oxalate ion in PCR was investigated using nPfu polymerase. A PCR buffer (20 mM Tris-HCl (pH 8.75), 10 mM KCl, 10 mM (NH4) 2SO4, 2 mM MgSO4, 0.1% Triton X-100, 100 μg/ml BSA) attached to nPfu (STRATAGENE), 0.2 mM of dNTPs, and 0.3 μM of a pair of primers of SEQ ID NOs:12, and 13 were used. PCR was performed by using 2.5 U nPfu DNA polymerase and 20 ng of genomic DNA derived from human cell line K562 as a template, with the influence on the PCR result caused by varying the concentration of oxalate ion being investigated. PCR was performed by using GeneAmp2400 (PE Applied Biosystems) with the following conditions: 1 preliminary reaction of 94° C. for 2 minutes, and then 35 cycles of 94° C. for 15 seconds, 60° C. for 30 seconds and 68° C. for 8 minutes.
Salts (potassium chloride, potassium acetate, potassium oxalate, potassium sulfate) were tested for their effectiveness in PCR using nPfu DNA polymerase under the same conditions as Example 1-5.

KOD-plus DNA polymerase = molecular target: T2, KOD-plus DNA polymerase (Thermococcus kodakarensis, UniProt P77933, DEL407-766/DEL853-1389); assay type: biochemical, Thermococcus kodakaraensis KOD1; conditions: for amplification of target DNA (electrophoresis pattern): salt at 6 mM of ion equivalent, FIG. 9; for effect on extra bands: FIG. 10
T2 construct: purchased Toyobo

EX-Taq DNA polymerase = test: PCR using EX-Taq DNA polymerase with added salts (Examples 1-1 to 1-3); assay type: biochemical
Procedure: The effect produced by the addition of oxalate ions was investigated in the PCR using EX-Taq DNA polymerase. A PCR buffer supplied with EX-Taq (TAKARA) and 0.3 μM of a pair of primers of SEQ ID Nos:8 and 9 and 0.2 mM dNTPs were used. PCR was performed by using 1.0 U EX-Taq DNA polymerase and 20 ng of genomic DNA derived from human cell line K562 as a template, with the influence on the PCR result caused by varying the concentration of added oxalate ion being investigated. The PCR conditions were as follows: 1 preliminary reaction of 94° C. for 2 minutes, and then 35 cycles of 94° C. for 15 seconds, 60° C. for 30 seconds and 68° C. for 8.5 minutes. This PCR amplification was performed by using GeneAmp2400 (PE Applied Biosystems).
Salts (potassium chloride, potassium acetate, potassium oxalate, sodium oxalate, potassium sulfate) were investigated for their effectiveness in PCR using EX-Taq DNA polymerase under the same conditions as Example 1. Each salts was used in an amount of 4 to 6 mM of ion equivalent

T2 sequence (P77933 other isoform, or with tags, fused parts or gaps DEL407-766/DEL853-1389): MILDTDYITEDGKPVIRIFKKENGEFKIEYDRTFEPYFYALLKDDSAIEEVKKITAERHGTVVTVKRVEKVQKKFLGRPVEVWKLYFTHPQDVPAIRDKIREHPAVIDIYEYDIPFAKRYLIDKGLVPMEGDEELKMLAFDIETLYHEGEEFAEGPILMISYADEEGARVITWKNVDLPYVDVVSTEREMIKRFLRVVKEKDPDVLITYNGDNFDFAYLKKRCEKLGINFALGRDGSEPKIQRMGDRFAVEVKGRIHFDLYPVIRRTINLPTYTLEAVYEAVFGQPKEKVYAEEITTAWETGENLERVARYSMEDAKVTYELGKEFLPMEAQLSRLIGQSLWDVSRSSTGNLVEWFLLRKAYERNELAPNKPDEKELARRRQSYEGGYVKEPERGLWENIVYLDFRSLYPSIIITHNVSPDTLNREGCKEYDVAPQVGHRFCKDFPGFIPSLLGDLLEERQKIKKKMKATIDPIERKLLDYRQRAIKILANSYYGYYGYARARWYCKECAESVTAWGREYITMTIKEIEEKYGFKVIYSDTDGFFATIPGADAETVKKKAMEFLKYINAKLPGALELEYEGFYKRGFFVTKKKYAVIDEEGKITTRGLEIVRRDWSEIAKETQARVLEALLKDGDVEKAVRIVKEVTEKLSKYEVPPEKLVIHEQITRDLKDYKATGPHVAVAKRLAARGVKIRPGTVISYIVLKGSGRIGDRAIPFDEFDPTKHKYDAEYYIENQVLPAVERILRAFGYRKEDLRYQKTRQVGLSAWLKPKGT

## CC(=O)[O-].[K+] [potassium acetate, reference compound]
nPfu DNA polymerase
  amplification of target DNA (electrophoresis pattern): amplification of the target DNA was not observed
KOD-plus DNA polymerase
  amplification of target DNA (electrophoresis pattern): Amplification of the target DNA was not observed

## [Cl-].[K+] [potassium chloride, reference compound]
nPfu DNA polymerase
  amplification of target DNA (electrophoresis pattern): amplification of the target DNA was not observed
KOD-plus DNA polymerase
  amplification of target DNA (electrophoresis pattern): Amplification of the target DNA was not observed

## O=C[O-].[K+] [potassium formate, reference compound]
EX-Taq DNA polymerase; carboxylate salts, FIG. 3
  amplification of target DNA (electrophoresis pattern): A similar effect to that produced by oxalate salts was not observed

## O=C([O-])CCC(=O)[O-].[K+].[K+] [potassium succinate, reference compound]
EX-Taq DNA polymerase; carboxylate salts, FIG. 3
  amplification of target DNA (electrophoresis pattern): A similar effect to that produced by oxalate salts was not observed

## O=S(=O)([O-])[O-].[K+].[K+] [potassium sulfate, reference compound]
nPfu DNA polymerase
  amplification of target DNA (electrophoresis pattern): amplification of the target DNA was not observed
KOD-plus DNA polymerase
  amplification of target DNA (electrophoresis pattern): Amplification of the target DNA was not observed

## O=C([O-])/C=C\C(=O)[O-].[Na+].[Na+] [sodium maleate]
KOD-plus DNA polymerase; 4 mM salt
  effect on extra bands: extra bands tended to decrease
KOD-plus DNA polymerase; 10 mM salt
  effect on extra bands: most of the extra bands disappeared

## O=C([O-])CC(=O)[O-].[Na+].[Na+] [sodium malonate]
KOD-plus DNA polymerase; 2 mM salt
  effect on extra bands: the extra bands tended to decrease
KOD-plus DNA polymerase; 6 mM salt
  effect on extra bands: most of the extra bands disappeared

## O=C([O-])C(=O)[O-].[Na+].[Na+] [sodium oxalate]
EX-Taq DNA polymerase; carboxylate salts, FIG. 3
  amplification of target DNA (electrophoresis pattern): amplification of the target DNA was observed
EX-Taq DNA polymerase; salt at 4 to 6 mM of ion equivalent, FIG. 2
  amplification of target DNA (electrophoresis pattern): Amplification was observed
KOD-plus DNA polymerase
  amplification of target DNA (electrophoresis pattern): Amplification was observed
